In patent US9493448B2, “Cycloalkane derivatives” (Daiichi Sankyo Company, Limited, priority 2012, dated 2016):
Structures can show the parent of a compound that is named as a salt.

target: hNav 1.7 (Homo sapiens (Human), UniProt Q15858); assay: Electrophysiological evaluation, automated patch clamp IonWorks Quattro (Population Patch Clamp mode); format: cell-based; conditions: HEK293A cells stably expressing hNav 1.7/β1/β2; response to second depolarization pulse, pre-pulse potential set to V1/2; read-out: hNav1.7 IC50
Sequence (Q15858 whole entry): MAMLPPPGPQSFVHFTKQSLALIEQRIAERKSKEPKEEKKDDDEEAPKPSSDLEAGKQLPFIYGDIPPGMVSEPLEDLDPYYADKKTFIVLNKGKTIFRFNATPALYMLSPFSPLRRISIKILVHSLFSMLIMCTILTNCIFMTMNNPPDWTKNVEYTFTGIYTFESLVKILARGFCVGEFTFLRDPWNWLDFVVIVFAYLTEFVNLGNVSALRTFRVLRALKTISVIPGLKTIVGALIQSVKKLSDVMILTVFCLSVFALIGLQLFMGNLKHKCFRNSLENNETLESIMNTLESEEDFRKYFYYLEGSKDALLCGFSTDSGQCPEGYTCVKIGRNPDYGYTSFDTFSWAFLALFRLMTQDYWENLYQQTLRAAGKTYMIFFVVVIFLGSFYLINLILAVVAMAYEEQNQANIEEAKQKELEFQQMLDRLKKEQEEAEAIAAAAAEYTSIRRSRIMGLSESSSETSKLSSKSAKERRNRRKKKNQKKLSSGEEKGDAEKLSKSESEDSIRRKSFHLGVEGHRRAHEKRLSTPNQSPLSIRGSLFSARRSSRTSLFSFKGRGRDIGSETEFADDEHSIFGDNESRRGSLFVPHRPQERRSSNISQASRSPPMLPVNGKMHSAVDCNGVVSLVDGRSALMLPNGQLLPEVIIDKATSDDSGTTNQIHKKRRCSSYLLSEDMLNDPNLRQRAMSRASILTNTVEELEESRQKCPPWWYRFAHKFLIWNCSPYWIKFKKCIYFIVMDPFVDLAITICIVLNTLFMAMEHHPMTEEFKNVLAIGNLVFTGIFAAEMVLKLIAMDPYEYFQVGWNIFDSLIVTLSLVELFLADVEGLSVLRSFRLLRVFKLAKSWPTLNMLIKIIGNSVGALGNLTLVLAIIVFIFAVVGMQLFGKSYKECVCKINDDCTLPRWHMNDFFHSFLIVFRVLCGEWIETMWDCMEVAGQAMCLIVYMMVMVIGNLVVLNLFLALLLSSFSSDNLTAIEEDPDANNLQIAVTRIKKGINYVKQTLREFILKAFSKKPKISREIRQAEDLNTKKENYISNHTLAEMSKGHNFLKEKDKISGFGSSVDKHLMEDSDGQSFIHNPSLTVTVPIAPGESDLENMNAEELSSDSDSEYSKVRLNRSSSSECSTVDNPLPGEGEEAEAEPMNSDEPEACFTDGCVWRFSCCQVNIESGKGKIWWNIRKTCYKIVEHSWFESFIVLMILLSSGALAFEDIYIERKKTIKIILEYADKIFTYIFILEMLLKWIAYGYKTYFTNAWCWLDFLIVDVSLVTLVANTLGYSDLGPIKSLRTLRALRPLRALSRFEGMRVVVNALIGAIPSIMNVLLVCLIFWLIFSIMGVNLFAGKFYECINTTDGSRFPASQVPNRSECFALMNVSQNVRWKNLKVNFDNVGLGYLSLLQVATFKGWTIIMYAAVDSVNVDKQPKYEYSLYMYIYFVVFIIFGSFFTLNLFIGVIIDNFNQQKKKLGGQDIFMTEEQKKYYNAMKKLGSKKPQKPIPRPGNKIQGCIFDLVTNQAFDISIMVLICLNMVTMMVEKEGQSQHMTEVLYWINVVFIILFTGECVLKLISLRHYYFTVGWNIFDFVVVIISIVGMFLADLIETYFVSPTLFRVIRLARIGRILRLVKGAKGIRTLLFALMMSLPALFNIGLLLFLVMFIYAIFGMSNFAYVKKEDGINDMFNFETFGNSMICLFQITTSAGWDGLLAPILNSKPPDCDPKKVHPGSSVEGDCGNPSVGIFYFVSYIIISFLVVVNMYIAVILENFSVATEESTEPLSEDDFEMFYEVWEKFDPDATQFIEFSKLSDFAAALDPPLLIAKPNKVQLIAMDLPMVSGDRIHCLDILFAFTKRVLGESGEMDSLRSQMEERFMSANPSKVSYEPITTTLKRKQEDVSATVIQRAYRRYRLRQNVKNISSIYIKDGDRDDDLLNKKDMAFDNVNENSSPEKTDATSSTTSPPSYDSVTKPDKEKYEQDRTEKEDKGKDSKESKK
Sequence (Q07699 19-218 partner): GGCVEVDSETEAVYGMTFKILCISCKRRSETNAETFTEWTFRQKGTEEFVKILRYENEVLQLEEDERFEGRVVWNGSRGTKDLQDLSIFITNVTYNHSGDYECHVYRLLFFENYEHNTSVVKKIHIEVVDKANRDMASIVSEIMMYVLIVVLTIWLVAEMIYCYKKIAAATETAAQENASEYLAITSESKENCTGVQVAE
Sequence (O60939 30-215 partner): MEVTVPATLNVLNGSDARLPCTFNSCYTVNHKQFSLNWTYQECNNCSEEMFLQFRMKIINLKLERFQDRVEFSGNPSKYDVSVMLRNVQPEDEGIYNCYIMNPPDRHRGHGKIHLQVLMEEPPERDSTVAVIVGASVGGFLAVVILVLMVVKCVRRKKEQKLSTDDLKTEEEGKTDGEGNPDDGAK

SMILES	IC50
Cn1nccc1[C@H]1CCC[C@@H]1Oc1ccc(S(=O)(=O)Nc2ccncn2)c(F)c1 [Example 124, 2-Fluoro-4-{[(1S,2R)-2-(1-methyl-1H-pyrazol-5-yl)cyclopentyl]oxy}-N-(pyrimidin-4-yl)benzenesulfonamide]	2400 nM
Nc1cc([C@H]2CCC[C@@H]2Oc2cc(F)c(S(=O)(=O)Nc3ccncn3)cc2F)ccn1 (relative stereo) [Example 36, 4-{[(1S*,2R*)-2-(2-Aminopyridin-4-yl)cyclopentyl]oxy}-2,5-difluoro-N-(pyrimidin-4-yl)benzenesulfonamide]	500 nM
Cc1cc(S(=O)(=O)Nc2ccncn2)c(F)cc1O[C@H]1CCC(F)(F)C[C@@H]1c1ccn[nH]1 (relative stereo) [Example 157, 4-{[(1S*,2R*)-4,4-Difluoro-2-(1H-pyrazol-5-yl)cyclohexyl]oxy}-2-fluoro-5-methyl-N-(pyrimidin-4-yl)benzenesulfonamide]	50 nM
O=S(=O)(Nc1ccncn1)c1cc(Cl)c(O[C@H]2CC(F)(F)CC[C@@H]2c2ccn[nH]2)cc1F (relative stereo) [Example 156, 5-Chloro-4-{[(1S*,2R*)-5,5-difluoro-2-(1H-pyrazol-5-yl)cyclohexyl]oxy}-2-fluoro-N-(pyrimidin-4-yl)benzenesulfonamide]	41 nM
Cn1nccc1[C@H]1CCC(F)(F)C[C@@H]1Oc1cc(F)c(S(=O)(=O)Nc2ccncn2)cc1F [Example 102, 4-{[(1S,2R)-5,5-Difluoro-2-(1-methyl-1H-pyrazol-5-yl)cyclohexyl]oxy}-2,5-difluoro-N-(pyrimidin-4-yl)benzenesulfonamide]	36 nM
Cc1cc(S(=O)(=O)Nc2ccncn2)c(F)cc1O[C@H]1CC(F)(F)CC[C@@H]1c1ccn[nH]1 (relative stereo) [Example 155, 4-{[(1S*,2R*)-5,5-Difluoro-2-(1H-pyrazol-5-yl)cyclohexyl]oxy}-2-fluoro-5-methyl-N-(pyrimidin-4-yl)benzenesulfonamide]	28 nM
Cn1nccc1[C@H]1C[C@H](OCc2ccccc2)CC[C@@H]1Oc1cc(F)c(S(=O)(=O)Nc2ccncn2)cc1F (relative stereo) [Example 112, 4-{[(1S*,2R*,4R*)-4-(Benzyloxy)-2-(1-methyl-1H-pyrazol-5-yl)cyclohexyl]oxy}-2,5-difluoro-N-(pyrimidin-4-yl)benzenesulfonamide]	310 nM
Cc1ncccc1[C@H]1CCCC[C@@H]1Oc1cc(F)c(S(=O)(=O)Nc2ccncn2)cc1F (relative stereo) [Example 70, 2,5-Difluoro-4-{[(1S*,2R*)-2-(2-methylpyridin-3-yl)cyclohexyl]oxy}-N-(pyrimidin-4-yl)benzenesulfonamide]	330 nM
Cn1nccc1[C@@H]1C[C@@H](O)CC[C@H]1Oc1cc(F)c(S(=O)(=O)Nc2ccncn2)cc1Cl [Example 164, 5-Chloro-2-fluoro-4-{[(1R,2S,4S)-4-hydroxy-2-(1-methyl-1H-pyrazol-5-yl)cyclohexyl]oxy}-N-(pyrimidin-4-yl)benzenesulfonamide]	> 10000 nM
Cn1nccc1[C@H]1CCCC[C@@H]1Oc1cc(F)c(S(=O)(=O)Nc2cscn2)cc1Cl (relative stereo) [Example 10, 5-Chloro-2-fluoro-4-{[(1S*,2R*)-2-(1-methyl-1H-pyrazol-5-yl)cyclohexyl]oxy}-N-(1,3-thiazol-4-yl)benzenesulfonamide Na salt]	30 nM
Cn1nccc1[C@H]1C[C@H](O)CC[C@@H]1Oc1cc(F)c(S(=O)(=O)Nc2ccncn2)cc1Cl (relative stereo) [Example 161, 5-Chloro-2-fluoro-4-{[(1S*,2R*,4R*)-4-hydroxy-2-(1-methyl-1H-pyrazol-5-yl)cyclohexyl]oxy}-N-(pyrimidin-4-yl)benzenesulfonamide]	130 nM
CO[C@H]1C[C@H](Oc2cc(F)c(S(=O)(=O)Nc3ccncn3)cc2F)[C@@H](c2ccnn2C)C1 (relative stereo) [Example 121, 2,5-Difluoro-4-{[(1S*,2R*,4R*)-4-methoxy-2-(1-methyl-1H-pyrazol-5-yl)cyclopentyl]oxy}-N-(pyrimidin-4-yl)benzenesulfonamide]	930 nM
O=S(=O)(Nc1ccncn1)c1cc(F)c(O[C@H]2CCCC[C@@H]2c2ccn[nH]2)cc1F (relative stereo) [Example 22, 2,5-Difluoro-4-{[(1S*,2R*)-2-(1H-pyrazol-5-yl)cyclohexyl]oxy}-N-(pyrimidin-4-yl)benzenesulfonamide]	520 nM
O=S(=O)(Nc1ncns1)c1cc(F)c(O[C@H]2CCCCC[C@@H]2c2ccccc2)cc1F (relative stereo) [Example 7, 2,5-Difluoro-4-{[(1S*,2R*)-2-phenylcycloheptyl]oxy}-N-(1,2,4-thiadiazol-5-yl)benzenesulfonamide]	450 nM

Next, values leading:

IC50	SMILES
130 nM	CCc1cc(S(=O)(=O)Nc2ccncn2)ccc1O[C@H]1CCCC[C@@H]1c1c[nH]nc1N (relative stereo) [Example 89, 4-{[(1S*,2R*)-2-(3-Amino-1H-pyrazol-4-yl)cyclohexyl]oxy}-3-ethyl-N-(pyrimidin-4-yl)benzenesulfonamide]
23 nM	Cn1nccc1[C@H]1CCC[C@@H]1Oc1cc(F)c(S(=O)(=O)Nc2ccnc(F)n2)cc1F (relative stereo) [Example 24, 2,5-Difluoro-N-(2-fluoropyrimidin-4-yl)-4-{[(1S*,2R*)-2-(1-methyl-1H-pyrazol-5-yl)cyclopentyl]oxy}benzenesulfonamide]
250 nM	Cn1nccc1[C@H]1CCC[C@@H]1Oc1ccc(S(=O)(=O)Nc2ccncn2)cc1C(F)(F)F (relative stereo) [Example 21, 4-{[(1S*,2R*)-2-(1-Methyl-1H-pyrazol-5-yl)cyclopentyl]oxy}-N-(pyrimidin-4-yl)-3-(trifluoromethyl)benzenesulfonamide]
200 nM	Cn1nccc1[C@H]1CCC[C@@H]1Oc1ccc(S(=O)(=O)Nc2ccncn2)cc1C#N (relative stereo) [Example 26, 3-Cyano-4-{[(1S*,2R*)-2-(1-methyl-1H-pyrazol-5-yl)cyclopentyl]oxy}-N-(pyrimidin-4-yl)benzenesulfonamide]
170 nM	Cn1nccc1[C@H]1CCC[C@@H]1Oc1ccc(S(=O)(=O)Nc2ccnc(F)n2)cc1F (relative stereo) [Example 18, 3-Fluoro-N-(2-fluoropyrimidin-4-yl)-4-{[(1S*,2R*)-2-(1-methyl-1H-pyrazol-5-yl)cyclopentyl]oxy}benzenesulfonamide]
270 nM	Cn1nccc1[C@H]1C[C@@H](F)C[C@@H]1Oc1cc(F)c(S(=O)(=O)Nc2ccncn2)cc1F (relative stereo) [Example 106, 2,5-Difluoro-4-{[(1S*,2R*,4R*)-4-fluoro-2-(1-methyl-1H-pyrazol-5-yl)cyclopentyl]oxy}-N-(pyrimidin-4-yl)benzenesulfonamide]
410 nM	Cn1nccc1[C@@H]1[C@@H](Oc2cc(F)c(S(=O)(=O)Nc3ccncn3)cc2F)CCC1(C)C (relative stereo) [Example 99, 4-{[(1S*,2R*)-3,3-Dimethyl-2-(1-methyl-1H-pyrazol-5-yl)cyclopentyl]oxy}-2,5-difluoro-N-(pyrimidin-4-yl)benzenesulfonamide]
> 100000 nM	Cn1nccc1[C@H]1CCCC[C@@H]1Oc1cc(F)c(S(=O)(=O)Nc2ccnc(=O)[nH]2)cc1Cl (relative stereo) [Example 153, 5-Chloro-2-fluoro-4-{[(1S*,2R*)-2-(1-methyl-1H-pyrazol-5-yl)cyclohexyl]oxy}-N-(2-oxo-2,3-dihydropyrimidin-4-yl)benzenesulfonamide]
